Laboratory results: patent publication US20140301961A1, “COMPOUNDS WITH ANTI-AGING ACTIVITIES” (priority 2011, published 2014)

Assays:
pro-collagen type 1 = experiment: Pro-collagen 1 ELISA in dermal fibroblasts; format: cell-based, human; settings: 24 hour stimulation, 3 donors (FIG. 5)
Procedure: (§1) MMP-inhibitory activity for compounds of the invention was also assessed on human dermal fibroblasts. Dermal fibroblasts were cultured in Dulbecco's Modified Eagle Medium (DMEM) (Invitrogen) with 10% EBS (ex. Invitrogen) and 1% Pencillin/Streptavidin (ex. Invitrogen). To induce inflammation in the cells, PMA (phorbol myristate acetate) (ex. Sigma) was used at a concentration of 10 nM. […] The cells were stimulated for 24 h and the culture supernatant was collected and stored at −20° C. until further analysis.
Fibroblast cells were cultured as outlined in Example 3.1 and treated with compounds of the invention The secretion of pro-collagen in the cell culture supernatants were analyzed using Pro-Collagen 1 specific ELISA (#8003; ex. Quidel). Results were compared with cell culture supernatants from DMSO vehicle treated cells. The assays utilized a 96-well microplate format and were processed according to the manufacturer's protocol, including generation of a standard curve prepared in background assay diluents. Absorbance of the assay dye was read at a Synergy HT plate reader. Values that fell within the linear range of the calibration assay were accepted. Quantities were determined by comparison to standard curve obtained for pro-collagen 1.

fibronectin = experiment: Fibronectin production in human keratinocytes; format: cell-based; settings: 6 days stimulation, compared to all-trans retinoic acid and retinol
Procedure: (§2) Keratinocytes were cultured in commercially available keratinocyte medium M154 (Cascade Biologics/Invitrogen) # M154500 with a final calcium […]. Supplements were added meeting following final concentrations of growth factors; bovine pituitary extract (BPE), 0.2% v/v·bovine insulin, 5 μg/ml·hydrocortisone, 0.18 μg/ml·bovine transferrin, 5 μg/ml·human epidermal growth factor, 0.2 ng/ml.
(§3) Medium was changed every other day. Cells were grown to 80% confluence prior stimulation with compounds. Experiments were performed in 24-well plates. The cells were treated with individual compounds of the invention for 6 days. After 3 days the medium was refreshed. A source of calcium ions was used as a positive control. After 6 days tissue culture medium was stored in −20° C. until analysis.
Experimental method as outlined in Example 3.1 was modified in order to analyze fibronectin levels extracted from keratinocytes stimulated for 6 days with all-trans retinoic acid, retinol, arachidonic acid, β-aescin, and […] (ethyl ester) at a range of concentrations. Experiments were performed in duplicates.
Cells were cultured as described in Example 5.1. and the methodology described in Example 3.1 was adapted in order analyze fibronectin production.

keratin 6 = experiment: Keratin-6 production in normal human keratinocytes; format: cell-based; settings: normal human keratinocytes (FIG. 11)
Kallikrein 8 = Kallikrein 8 ELISA in human normal keratinocytes; format: cell-based; settings: 4 days stimulation (FIG. 14)
Procedure: as §2
Keratinocytes used for Kallikrein 8 experiments were cultured as described in example 2.1. Experiments were performed in monolayers with 80% confluence. The cells were stimulated for 4 days prior to kallikrein 8 analysis with the different actives and then culture supernatant were collected and stored in −20° C. until further analysis. Kallikrein 8 production was analysed in cell culture supernatants from stimulated keratinocytes using a ELISA assay specific for Kallikrein 8 (Uscn Life Science Inc, E90690Hu). Results were compared with cell culture supernatants from DMSO vehicle treated cells. The assays utilized a 96-well microplate format and were processed according to the manufacturer's protocol, including generation of a standard curve prepared in background assay diluents. Absorbance of the assay dye was read at a Synergy HT plate reader. Values that fell within the linear range of the calibration assay were accepted. Quantities were determined by comparison to standard curves obtained for KLK8.

Keratin 1/10 = Keratin 1/10 production in human normal keratinocytes; format: cell-based; settings: concentration not given
Procedure: as §2, §3
Cells were cultured as described in Example 5.1. and the methodology described in Example 3.1 was adapted in order analyze keratin 1/10 production.

[1] = cited from earlier work
VEGF = experiment: Inflammation induced VEGF synthesis in cultured dermal fibroblasts; format: cell-based, human; settings: inflammatory inducer PMA (FIG. 10)
Procedure: as §1
Fluorokine MultiAnalyte Profiling (xMAP) using the BioPlex (ex. Biorad) dual laser flow-based sorting and detection analyzers manufactured by Luminex corporation (Luminex, Austin, Tex.) was employed to measure levels of MMP in conditioned media samples of stimulated dermal fibroblasts. The technology incorporated polystyrene microspheres dyed internally with differing ratios of two spectrally distinct fluorophores to create a family of different spectrally addressed bead sets. The bead utilized in this study was conjugated with a biotinylated capture antibody specific for a unique MMPs, The assay was performed without antecedent serum depletion. Results were compared with medium from cells treated with vehicle only (DMSO). The assays utilized a 96-well microplate format and were processed according to the manufacturer's protocol, including generation of a standard curve for each target prepared in background assay diluents. Values that fell within the linear range of the calibration assay were accepted. Samples were analyzed using the Bio-Plex suspension array system and Bio-Plex Manager software 4.0 (Bio-Rad Laboratories, Hercules, Calif.). Quantities were determined by comparison to standard curves obtained for the different MMP.
Cell culture and cytokine analysis was carried out on human dermal fibroblasts as described in Example 3.1. The methodology was adapted in order analyze VEGF production.

[2] = system: connective tissue growth factor (CTGF); experiment: Affymetrix gene array on skin explants, CTGF; format: cell-based, human; settings: topical, 24 hours
From the text: (§4) Subcutaneous fat from full thickness skin, obtained from surgical waste material from breast reduction procedures, was removed with a scalpel. Three healthy Caucasian female donors were used for this study. The female donors differed from those of the skin-treatment study outlined previously 8 mm punch biopsies were taken from the skin (and these biopsies are now referred to as skin explants). Skin explants were put on Milipore cell culture inserts (12 mm diameter). Inserts containing skin explants were put in 6-well plates (one insert/well) and 1 mL of supplemented keratinocyte medium (ex Cascade Biologics) was added to each well. A tretinoin-containing cream (Aberela® ex. Janssen): 0.05% tretinoin in the cream, was applied topically to each explant (5 μL/cm^2) using a positive displacement pipette. A placebo cream without tretinoin was used as a control. The skin explants were incubated with tretinoin for 24 hours at 37° C. in 5% CO2-humidified air.
(§5) RNA concentration was measured with ND-1000 spectrophotometer (ex. NanoDrop Technologies) and RNA quality was evaluated using the Agilent 2100 bioanalyzer system (ex. Agilent Technologies). 250 nanograms of total RNA from each skin or skin explant sample was used to prepare biotinylated fragmented cRNA according to the GeneChip® 3′IVT Express Kit Manual (PN702646 Rev 1, ex. Affymetrix Inc.). Affymetrix GeneChip® expression arrays (Human Genome U133 Plus 2.0) were hybridized for 16 hours in a 45° C. incubator, rotated at 60 rpm. According to the GeneChip Expression Wash, Stain and Scan Manual (PN 702731 Rev 2, ex. Affymetrix Inc.) the arrays were washed and stained using the Fluidics Station 450 and scanned using the GeneChip® Scanner 3000 7G.
(§6) Analysis of the gene expression data was carried out in the statistical computing language R (http://www.r-project.org) using packages available from the Bioconductor project (www.bioconductor.org). The raw data was normalized using the robust multi-array average (RMA) method. In order to search for differentially expressed genes between the X samples and the Y samples group an empirical Bayes moderated t-test was then applied using the ‘limma’ package.
Skin explants were obtained as detailed in Example 3.1. Compounds naringenin and N-acetyl aspartic acid were topically applied on skin explants for 24 hours and investigated with Affymetrix gene array.

[3] = system: heparin-binding EGF-like growth factor (HBEGF); experiment: Affymetrix gene array on skin explants, HBEGF; format: cell-based, human; settings: topical, 24 hours, cut-off |log 2−ratio|>1
From the text: as §4, §5
Analysis of the gene expression data was carried out in the statistical computing language R (http://www.r-project.org) using packages available from the Bioconductor project (www.bioconductor.org). The raw data was normalized using the robust multi-array average (RMA) method. […]

[4] = system: Plasminogen activator (PLAT); experiment: Plasminogen activator (PLAT) activation
[5] = system: prostaglandin-endoperoxide synthase 1 (PTGS1); experiment: Affymetrix gene array on skin explants, PTGS1; format: cell-based, human; settings: topical, 24 hours
From the text: as §4, §5, §6
(§7) Skin explants were obtained as detailed in Example 3.1.

[6] = system: hydroxysteroid (17-beta) dehydrogenase 2 (HSD17B2); experiment: Affymetrix gene array on skin explants, HSD17B2; format: cell-based, human; settings: topical, 24 hours
From the text: as §4, §5, §6, §7

[7] = system: steroid 5 alpha-reductase 3 (SRD5A3); experiment: Affymetrix gene array on skin explants, SRD5A3; format: cell-based, human; settings: topical, 24 hours
From the text: as §4, §5, §6, §7

[8] = system: tachykinin, precursor 1 (TAC1); experiment: Affymetrix gene array on skin explants, TAC1; format: cell-based, human; settings: topical, 24 hours
From the text: as §4, §5, §6, §7

[9] = system: arachidonate 5-lipoxygenase (ALOX5); experiment: Affymetrix gene array on skin explants, ALOX5; format: cell-based, human; settings: topical, 24 hours
From the text: as §4, §5, §6, §7

## CC/C=C\C/C=C\C/C=C\C/C=C\C/C=C\C/C=C\CCC(=O)OCC [Docosahexaenoic acid (ethyl ester)]
pro-collagen type 1
  production of pro-collagen type 1: convincing trend towards increasing
fibronectin
  fibronectin production / release: higher fibronectin production than retinoic acid
Keratin 6
  keratin-6 production: stimulated keratin-6 production
Kallikrein 8
  synthesis of kallikrein 8: significant increase in the synthesis of kallikrein 8
Keratin 1/10
  production of Keratin 1/10: stimulate production of Keratin 1/10

## CCCCC/C=C\C/C=C\C/C=C\C/C=C\CCCC(=O)O [Arachdonic acid, Arachidonic acid]
pro-collagen type 1
  production of pro-collagen type 1: promote pro-collagen 1 expression
fibronectin
  fibronectin production / release: higher fibronectin production than retinoic acid
Kallikrein 8
  synthesis of kallikrein 8: significant increase in the synthesis of kallikrein 8
Keratin 1/10
  production of Keratin 1/10: stimulate production of Keratin 1/10
[1]
  Log p: 6.98

## CC1=C(/C=C/C(C)=C/C=C/C(C)=C/C(=O)O)C(C)(C)CCC1 [All-trans retinoic acid, all-trans retinoic acid, reference compound]
VEGF
  inflammatory induced VEGF synthesis: additional increase in VEGF
[2]; cut-off |log 2−ratio|>1
  CTGF gene expression: No
[2]; cut-off |log 2−ratio|>1, listed as all-trans retinoic acid
  CTGF gene expression: did not have any effect
[3]
  HBEGF gene expression: 1.21 log 2−ratio
[4]
  Plasminogen activator (PLAT) activation: activated
Kallikrein 8
  synthesis of kallikrein 8: significant stimulation of kallikrein 8
[5]
  PTGS1 gene expression: −1.03 log 2−ratio
[6]
  HSD17B2 gene expression: −0.48 log 2−ratio
[7]
  SRD5A3 gene expression: 0.29 log 2−ratio
[8]
  TAC1 gene expression: −4.01 log 2−ratio
[9]
  ALOX5 gene expression: −0.69 log 2−ratio

## O=c1c(O)c(-c2ccc(O)c(O)c2)oc2cc(O)cc(O)c12 [Quercetin]
pro-collagen type 1
  production of pro-collagen type 1: promote pro-collagen 1 expression
Kallikrein 8
  synthesis of kallikrein 8: induce production of Kallikrein 8
Keratin 1/10
  production of Keratin 1/10: stimulate production of Keratin 1/10

## O=c1cc(-c2ccc(O)cc2)oc2c([C@@H]3O[C@H](CO)[C@@H](O)[C@H](O)[C@H]3O)c(O)cc(O)c12 [Vitexin]
[1]
  Log p: 1.5

## β-aescin [Beta Aescin]
pro-collagen type 1
  production of pro-collagen type 1: convincing trend towards increasing
fibronectin
  fibronectin production / release: higher fibronectin production than retinoic acid
VEGF
  inflammatory induced VEGF synthesis: decreased VEGF expression, although insignificant
Kallikrein 8
  synthesis of kallikrein 8: induce production of Kallikrein 8
Keratin 1/10
  production of Keratin 1/10: stimulate production of Keratin 1/10

## CC1=C(/C=C/C(C)=C/C=C/C(C)=C/CO)C(C)(C)CCC1 [retinol, All-trans retinol, reference compound]
VEGF
  inflammatory induced VEGF synthesis: small but insignificant decrease in VEGF
Kallikrein 8
  synthesis of kallikrein 8: significant stimulation of kallikrein 8
